≈ marks a conversion by molar mass, not a printed value. Where a SMILES comes first, the peptide text is derived from it. The star is where a group is joined. X2 = CC1(C)C(=CC=CC=CC2=[N+](CCCCS(=O)(=O)[O-])c3ccc(S(=O)(=O)O)cc3C2(C)C)N(CCCCCC(=O)NCCN2C(=O)CC(*)C2=O)c2ccc(S(=O)(=O)O)cc21
Experiments:
[1] = system: P0-expressing RT4 D6P2T myelinating Schwannoma cells; test: P0 staining and co-localization via fluorescence confocal microscopy; type: cell-based; details: 1 μM tracer, 1 h at 4 °C
Description: All chemicals were received from Actu-All Chemical (Oss, The Netherlands), Sigma Aldrich (St. Louis, MO, USA), Tokyo Chemical Industry (Tokyo, Japan), Biosolve BV (Valkenswaard, The Netherlands), and VWR Chemicals (Solon, OH, USA) and used without further purification. DMF and DMSO were dried over 4 Å molecular sieves for at least 24 h prior to use. Preparative high-pressure liquid chromatography (prep-HPLC) was performed on a Waters HPLC system (Waters Chromatography B.V., Etten-Leur, The Netherlands) using a 2545 quaternary gradient module pump and a 2489 UV detector. […] Absorption spectrometry was performed using a UV1280 UV–vis spectrometer (Shimadzu, Kyoto, Japan), and fluorescence spectrometry was performed using an LS55 (Perkin Elmer, Waltham, MA, USA). Fluorescence confocal imaging was performed using an SP8 WLL confocal microscope (Leica Microsystems, Wetzlar, Germany). The obtained images were analyzed using Leica Confocal Software (Leica Microsystems). The mean fluorescence intensity values per sample were measured using an LSRII flow cytometer (BD Biosciences, Franklin Lakes, NJ, USA) with APC-A settings (635 nm laser and 750 nm long-pass filter) for a Cy5 dye. […]
Semi-quenatitative assessment of the level of co-staining within the fluorescence […]

Brightness (in HSA) = type: physicochemical, human; details: in human serum albumin
Description: (§1) Determination of the chemical and photophysical properties (LogP, solubility, serum binding, net charge, and brightness) was performed as previously described.

Solubility = type: physicochemical; details: as previously described (refs 27, 31, 36)
Description: as §1

LogP = type: physicochemical; details: as previously described (refs 27, 31, 36)
Description: as §1

Serum binding = type: in vitro ADME; details: as previously described (refs 27, 31, 36)
Description: as §1

[2] = target: myelin protein zero (Homo sapiens) (UniProt P25189); details: cited from earlier work
Sequence of myelin protein zero (Homo sapiens) (P25189 30-153): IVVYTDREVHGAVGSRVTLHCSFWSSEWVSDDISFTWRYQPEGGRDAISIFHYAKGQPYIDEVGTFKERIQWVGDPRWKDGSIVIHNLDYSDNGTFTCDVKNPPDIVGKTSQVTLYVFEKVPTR

Row | Compound | Co-localization factor (scale: 0-1), Cy5 vs Lysosomes ([1]; N = 3 per tracer, semi-quantitative, Image J) | Brightness (in HSA) (Brightness (in HSA)) | Solubility (Solubility) [µM] | LogP (LogP) | fraction unbound (Serum binding) | Kd [2] [nM] | P0-related staining (pattern and intensity) ([1]; confocal microscopy, in words)
1 | CC[C@H](C)[C@H](NC(=O)[C@H](CC(=O)O)NC(C)=O)C(=O)N[C@H](C(=O)NCC(=O)N[C@@H](CCCCN)C(=O)N[C@H](C(=O)N[C@@H](CO)C(=O)N[C@@H](CCC(N)=O)C(=O)N[C@H](C(=O)N[C@H](C(=O)N[C@@H](CC(C)C)C(=O)N[C@@H](Cc1ccc(O)cc1)C(=O)N[C@H](C(=O)N[C@@H](Cc1ccccc1)C(=O)N[C@@H](CCC(=O)O)C(=O)N[C@@H](CCCCN)C(=O)N[C@H](C(=O)N1CCC[C@H]1C(=O)N[C@H](C(=O)N[C@@H](CCCNC(=N)N)C(=O)N[C@@H](Cc1ccc(O)cc1)C(=O)N[C@@H](CSC1CC(=O)N(CCNC(=O)CCCCCN2C(=CC=CC=CC3=[N+](CCCCS(=O)(=O)[O-])c4ccc(S(=O)(=O)O)cc4C3(C)C)C(C)(C)c3cc(S(=O)(=O)O)ccc32)C1=O)C(N)=O)[C@@H](C)O)C(C)C)C(C)C)[C@@H](C)O)C(C)C)[C@@H](C)O)C(C)C (stereo partly drawn) [Cy5-P0_105–125] (Ac-DIVGKTSQVTLYVFEKVPTRYC(X2)-NH2; N-terminus and C-terminus assumed) | low | 157,300 | 9 (≈ 31.3 µg/mL) | −0.60 ± 0.04 | 0.44 | – | –
2 | Cy5-P0101-125 101-125 (from UniProt P25189) | – | – | – | – | – | 104 | –
3 | KNPPDIVGKTSQVTLYVFEKVPTRY [Cy5-P0_101–125] | – | 67,760 | 172 | – | – | – | in agreement with the location of P0 on the membrane

Reference: publication PMC10296720, “A Truncated 14-Amino-Acid Myelin Protein-Zero-Targeting Peptide for Fluorescence-Guided Nerve-Preserving Surgery” (Biomolecules, 2023)
